According to patent US20240132464A1, “HETEROCYCLIC COMPOUNDS AS E3 LIGASE INHIBITORS” (Accutar Biotechnology Inc., priority 2022, published 2024):

Biological target: T1, GID4 (Uniprot ID: Q81VV7, residues 124-289) (Homo sapiens, UniProt Q8IVV7)
T1 construct: GID4 (Uniprot ID: Q81VV7, residues 124-289)
T1 sequence (Q8IVV7 124-289): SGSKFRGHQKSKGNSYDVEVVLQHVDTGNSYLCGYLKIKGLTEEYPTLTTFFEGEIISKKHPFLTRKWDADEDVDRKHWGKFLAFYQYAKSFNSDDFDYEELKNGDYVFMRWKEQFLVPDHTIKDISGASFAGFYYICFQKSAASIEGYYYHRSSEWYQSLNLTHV
Test: GID4 competitive binding assay (AlphaScreen, GID4/degron peptide PGLW)
Settings: 24 nM GID4, 48 nM biotinylated degron peptide PGLW, 4° C., read-out: IC50 (Inhibition of GID4/Degron binding by test compounds)
Method: GID4 Competitive Binding Assay
GID4 binding affinity of compounds disclosed herein was measured by monitoring the interaction of GID4 with its degron peptide (PGLW) in the presence of the test compounds. A truncated version of GID4 (Uniprot ID: Q81VV7, residues 124-289) with a 6*His at its C-terminus was used in this assay. Tetrapeptide, PGLW, was synthesized and tagged with an additional lysine labeled with biotin at its sidechain.
GID4 competitive binding assays were performed in a 384-well plate at 4° C. in a 20 μL reaction volume. Briefly, 24 nM GID4 (final concentration) proteins were pre-incubated with 48 nM biotinylated degron peptide (final concentration) in an assay buffer containing 20 mM HEPES, pH 7.5, 100 mM NaCl, 1 mM DTT, 0.1% Tween-20, and 0.05% BSA in the presence of the test compound in 2% DMSO (final concentration) at various concentrations for 2 h. 5 ug/ml Streptavidin ALphaScreen donor beads and 5 ug/ml nickel chelate (Ni-NTA) ALphaScreen acceptor beads (PerkinElmer, 6760619C) (final concentrations) were then added to the mixture. After an incubation of 1 h at 4° C., the fluorescent signals were obtained on the EnVision® 2105 Multilabel Plate Reader (PerkinElmer).
Raw ALphaScreen data were converted to a percentage of inhibition (relative to DMSO) using the following equations: […]
For a given test compound concentration X:
Signal (X)=Signal (GID4 & peptide & compound)−Signal (GID4 & buffer & compound)
Percentage of inhibition at concentration X=[1−Signal(X)/Signal (DMSO)]*100% b)
The IC50 values were determined by nonlinear regression of plots of [inhibitor] vs. percentage of inhibition with variable slope.
Table 3 summarizes the inhibition of binding between GID4 and degron peptide with compounds of the present disclosure. Compounds were ranked into bins as follows for IC50: A indicates <500 nM; B indicates 500 nM-5000 nM; C indicates >5000 nM.

First: CN(C)CCCNC(=O)c1ncc(-c2cc(O)c3ncccc3c2)cn1 [Compound 271, N-(3-(dimethylamino)propyl)-5-(8-hydroxyquinolin-6-yl)pyrimidine-2-carboxamide]
Second: CN(C)CCCC(=O)N1CC=C(c2cc(O)c3ncccc3c2)CC1 [Compound 309, 4-(dimethylamino)-1-(4-(8-hydroxyquinolin-6-yl)-3,6-dihydropyridin-1(2H)-yl)butan-1-one]
The IC50 of the first is lower: less than 0.5 µM for the first, 0.5 to 5 µM for the second. The first is the more potent here.

First: CN(C)C(=O)CCC1CCCN(c2nc(N)nc3c2CCCN3)C1 (stereo not shown) [Compound 135, 3-(1-(2-amino-5,6,7,8-tetrahydropyrido[2,3-d]pyrimidin-4-yl)piperidin-3-yl)-N,N-dimethylpropanamide]
Second: Cc1nc(N)nc(N2CCCC(c3ccn[nH]3)C2)c1Br (stereo not shown) [Compound 216, 4-(3-(1H-pyrazol-5-yl)piperidin-1-yl)-5-bromo-6-methylpyrimidin-2-amine]
The IC50 of the first is lower: 0.5 to 5 µM for the first, greater than 5 µM for the second. The first is the more potent here.

`CN(C)C1CCN(C(=O)c2cccc(-c3ccc4c(=O)[nH]ccc4c3)c2)C1` (stereo not shown) [Compound 350, 6-(3-(3-(dimethylamino)pyrrolidine-1-carbonyl)phenyl)isoquinolin-1(2H)-one] and `CN1CC(CNC(=O)c2cccc(-c3ccc4ccnc(N)c4c3)c2)C1` [Compound 347, 3-(1-aminoisoquinolin-7-yl)-N-((1-methylazetidin-3-yl)methyl)benzamide] cannot be ordered by IC50: greater than 5 µM for the first, greater than 5 µM for the second.

First: CC(C)c1cc(N2CCNC(c3ccc(F)cc3Br)C2)nc(N)n1 (stereo not shown) [Compound 173, 4-(3-(2-bromo-4-fluorophenyl)piperazin-1-yl)-6-isopropylpyrimidin-2-amine]
Second: CC(C)c1cc(N2CCNC(c3cc(Br)ccc3Br)C2)nc(N)n1 (stereo not shown) [Compound 200, 4-(3-(2,5-dibromophenyl)piperazin-1-yl)-6-isopropylpyrimidin-2-amine]
The IC50 of the first is lower: less than 0.5 µM for the first, 0.5 to 5 µM for the second.

First: Nc1nc(N2CCCC(c3ccn[nH]3)C2)c2[nH]cnc2n1 (stereo not shown) [Compound 207, 6-(3-(1H-pyrazol-5-yl)piperidin-1-yl)-7H-purin-2-amine]
Second: Nc1nc2c(c(N3CCNC(c4nnc[nH]4)C3)n1)CSC2 (stereo not shown) [Compound 185, 4-(3-(4H-1,2,4-triazol-3-yl)piperazin-1-yl)-5,7-dihydrothieno[3,4-d]pyrimidin-2-amine]
The IC50 of the first is higher: greater than 5 µM for the first, 0.5 to 5 µM for the second. The second is the more potent here.

Compared with `Nc1cc(N2CCO[C@](CO)(c3ccccc3Br)C2)nc(N)n1` (stereo in doubt) [Compound 36, (R/S)-(2-(2-bromophenyl)-4-(2,6-diaminopyrimidin-4-yl)morpholin-2-yl)methanol], `Nc1cc(N2CCNC(c3ccccc3Br)C2)nc(N)n1` (stereo not shown) [Compound 172, 6-(3-(2-bromophenyl)piperazin-1-yl)pyrimidine-2,4-diamine] is lower in IC50: greater than 5 µM for the first, less than 0.5 µM for the second.

Compared with `CC(C)c1cc(N2CCCC(c3cnc4ccccn34)C2)nc(NCCO)n1` (stereo not shown) [Compound 127, 2-((4-(3-(imidazo[1,2-a]pyridin-3-yl)piperidin-1-yl)-6-isopropylpyrimidin-2-yl)amino)ethan-1-ol], `CC(C)c1cc(N2CCCC(c3cnc4ccccn34)C2)nc(N)n1` (stereo not shown) [Compound 178, 4-(3-(imidazo[1,2-a]pyridin-3-yl)piperidin-1-yl)-6-isopropylpyrimidin-2-amine] is lower in IC50: greater than 5 µM for the first, less than 0.5 µM for the second.

`CNc1cc(N2CCO[C@@H](c3ccccc3)C2)nc(N)n1` (racemic) [Compound 109, (S/R)-N4-methyl-6-(2-phenylmorpholino)pyrimidine-2,4-diamine] and `CC(C)c1cc(N2CCOC(c3ccccc3Br)C2)nc(N)n1` (single isomer, unassigned) [Compound 159, (S/R)-4-(2-(2-bromophenyl)morpholino)-6-isopropylpyrimidin-2-amine] fall in the same range of IC50: 0.5 to 5 µM for the first, 0.5 to 5 µM for the second.

Compared with `CC(C)c1cc(N2CCNC(c3nnc[nH]3)C2)nc(N)n1` (stereo not shown) [Compound 204, 4-(3-(4H-1,2,4-triazol-3-yl)piperazin-1-yl)-6-isopropylpyrimidin-2-amine], `CC(C)c1cc(N2CCNC(c3ccccc3I)C2)nc(N)n1` (stereo not shown) [Compound 176, 4-(3-(2-iodophenyl)piperazin-1-yl)-6-isopropylpyrimidin-2-amine] is lower in IC50: greater than 5 µM for the first, less than 0.5 µM for the second.

First: Nc1nc(N2CCOC(c3ccccc3Br)C2)c2cc[nH]c2n1 (single isomer, unassigned) [Compound 39, (R/S)-4-(2-(2-bromophenyl)morpholino)-7H-pyrrolo[2,3-d]pyrimidin-2-amine]
Second: Nc1nc(N2CCO[C@@H](c3ccccc3Br)C2)c2cc[nH]c2n1 (racemic) [Compound 40, (S/R)-4-(2-(2-bromophenyl)morpholino)-7H-pyrrolo[2,3-d]pyrimidin-2-amine]
The IC50 of the first is higher: greater than 5 µM for the first, 0.5 to 5 µM for the second. The second is the more potent here.

`CN1CC(CNC(=O)c2ccc(-c3cc(O)c4ncccc4c3)cc2)C1` [Compound 298, 4-(8-hydroxyquinolin-6-yl)-N-((1-methylazetidin-3-yl)methyl)benzamide] and `CN1CCCC(CNC(=O)c2ccc(-c3cc(O)c4ncccc4c3)cc2)C1` (stereo not shown) [Compound 290, 4-(8-hydroxyquinolin-6-yl)-N-((1-methylpiperidin-3-yl)methyl)benzamide] cannot be ordered by IC50: less than 0.5 µM for the first, less than 0.5 µM for the second.

`Brc1ccccc1C1CN(c2cc(NC3CC3)ncn2)CCN1` (stereo not shown) [Compound 79, 6-(3-(2-bromophenyl)piperazin-1-yl)-N-cyclopropylpyrimidin-4-amine] and `Brc1ccccc1[C@H]1CN(c2ccnc3[nH]cnc23)CCN1` (racemic) [Compound 34, (S/R)-7-(3-(2-bromophenyl)piperazin-1-yl)-3H-imidazo[4,5-b]pyridine] cannot be ordered by IC50: greater than 5 µM for the first, greater than 5 µM for the second.

First: CC(C)c1cc(N2CCNC(c3nnc4ccccn34)C2)nc(N)n1 (stereo not shown) [Compound 188, 4-(3-([1,2,4]triazolo[4,3-a]pyridin-3-yl)piperazin-1-yl)-6-isopropylpyrimidin-2-amine]
Second: CC(C)c1cc(N2CCC(c3cnc4ccccn34)C2)nc(N)n1 (stereo not shown) [Compound 253, 4-(3-(imidazo[1,2-a]pyridin-3-yl)pyrrolidin-1-yl)-6-isopropylpyrimidin-2-amine]
The IC50 of the first is higher: greater than 5 µM for the first, 0.5 to 5 µM for the second. The second is the more potent here.

Going from `CCOc1ccc(Br)c(C2CN(c3cc(C(C)C)nc(N)n3)CCN2)c1` (single isomer, unassigned) [Compound 25, (R/S)-4-(3-(2-bromo-5-ethoxyphenyl)piperazin-1-yl)-6-isopropylpyrimidin-2-amine] to `CC(C)Nc1nc(C(C)C)cc(N2CCNC(c3ccccc3Br)C2)n1` (single isomer, unassigned) [Compound 151, (R/S)-4-(3-(2-bromophenyl)piperazin-1-yl)-N,6-diisopropylpyrimidin-2-amine], the IC50 rises from less than 0.5 µM to greater than 5 µM.

`CC(=O)N1CCN(c2cc(N)nc(N)n2)C[C@@H]1c1ccccc1Br` (stereo in doubt) [Compound 59, (S/R)-1-(2-(2-bromophenyl)-4-(2,6-diaminopyrimidin-4-yl)piperazin-1-yl)ethan-1-one] and `Nc1nc(N)c(Cl)c(N2CCNC(c3ccccc3Br)C2)n1` (stereo not shown) [Compound 68, 6-(3-(2-bromophenyl)piperazin-1-yl)-5-chloropyrimidine-2,4-diamine] cannot be ordered by IC50: greater than 5 µM for the first, greater than 5 µM for the second.

Compared with `COC1CCN(C(=O)c2n[nH]c3ccc(-c4ccc5ccnc(N)c5c4)cc23)CC1` [Compound 332, (5-(1-aminoisoquinolin-7-yl)-1H-indazol-3-yl)(4-methoxypiperidin-1-yl)methanone], `CN(C)CCNC(=O)c1n[nH]c2ccc(-c3ccc4ccnc(N)c4c3)nc12` [Compound 327, 5-(1-aminoisoquinolin-7-yl)-N-(2-(dimethylamino)ethyl)-1H-pyrazolo[4,3-b]pyridine-3-carboxamide] is higher in IC50: less than 0.5 µM for the first, 0.5 to 5 µM for the second. The first is the more potent here.

`CC(C)c1cc(Nc2cccc(CC3CCNC3=O)c2)nc(N)n1` (stereo not shown) [Compound 197, 3-(3-((2-amino-6-isopropylpyrimidin-4-yl)amino)benzyl)pyrrolidin-2-one] and `CNc1nc(C)cc(Nc2cccc(-c3cnccn3)c2)n1` [Compound 190, N2,6-dimethyl-N4-(3-(pyrazin-2-yl)phenyl)pyrimidine-2,4-diamine] cannot be ordered by IC50: greater than 5 µM for the first, greater than 5 µM for the second.

`Oc1cc(C2=CCNCC2)cc2cccnc12` [Compound 324, 6-(1,2,3,6-tetrahydropyridin-4-yl)quinolin-8-ol] and `Nc1nc(N2CCN[C@@H](c3ccccc3Br)C2)c2cc[nH]c2n1` (racemic) [Compound 57, (S/R)-4-(3-(2-bromophenyl)piperazin-1-yl)-7H-pyrrolo[2,3-d]pyrimidin-2-amine] fall in the same range of IC50: 0.5 to 5 µM for the first, 0.5 to 5 µM for the second.

For `CC(C)c1cc(N2CCCC(c3cnc4c(F)cc(F)cn34)C2)nc(N)n1` (stereo not shown) [Compound 242, 4-(3-(6,8-difluoroimidazo[1,2-a]pyridin-3-yl)piperidin-1-yl)-6-isopropylpyrimidin-2-amine], the IC50 was 0.5 to 5 µM.
